Values of other authors as cited in patent publication US20080003300A1, “Compostions containing Mg/Zn/F-CaP plus inhibitors of pro-inflammatory Cytokines (a combination of a Free-B-Ring flavonoids and a flavan) for osteoporosis prevention, therapy and treatment of bone diseases” (priority 2006, published 2008).

Experiments:
COX-2 = biological target: T1, COX-2 (Ovis aries, UniProt P79208); conditions: Noreen et al. (1998)
T1 sequence (P79208 17-603): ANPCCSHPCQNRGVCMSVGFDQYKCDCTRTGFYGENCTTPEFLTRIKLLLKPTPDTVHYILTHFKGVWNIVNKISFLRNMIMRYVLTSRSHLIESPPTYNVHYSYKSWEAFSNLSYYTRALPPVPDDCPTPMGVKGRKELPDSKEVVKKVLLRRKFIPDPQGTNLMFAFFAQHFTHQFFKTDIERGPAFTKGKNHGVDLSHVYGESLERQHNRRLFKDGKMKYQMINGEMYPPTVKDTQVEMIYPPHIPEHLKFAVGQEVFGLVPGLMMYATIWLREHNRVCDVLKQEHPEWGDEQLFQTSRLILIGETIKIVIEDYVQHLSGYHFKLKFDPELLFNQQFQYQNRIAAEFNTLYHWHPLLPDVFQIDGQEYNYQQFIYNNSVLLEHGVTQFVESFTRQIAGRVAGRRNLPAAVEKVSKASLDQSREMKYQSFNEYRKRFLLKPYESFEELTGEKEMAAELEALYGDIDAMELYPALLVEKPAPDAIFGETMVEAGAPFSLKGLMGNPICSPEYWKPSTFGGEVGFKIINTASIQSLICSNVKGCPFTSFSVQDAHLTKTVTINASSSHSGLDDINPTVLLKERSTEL

[1] = system: prostaglandin endoperoxide synthase; conditions: Kalkbrenner et al. (1992)
[2] = system: COX-2 gene transcription in human colon cancer DLD-1 cells; conditions: Mutoh et al. (2000)

Oc1cc(O)c2c(c1)O[C@H](c1ccc(O)c(O)c1)[C@@H](O)C2 [(+)-catechin]
selectivity for COX-2 (COX-2): no selectivity for COX-2

Oc1cc(O)c2c(c1)OC(c1ccc(O)c(O)c1)C(O)C2 (stereo not drawn) [Catechin]
IC50 [1]: 40 µM | IC50 [2]: 415 µM
